Assay results from US10906946B2, “Thrombin inhibitors” (priority 2015, dated 2021).
Like-named read-outs stand apart in the source and are kept apart here. Peptide text beside a SMILES is read from it.

What was measured:
[1] = system: platelets (ADP-induced platelet aggregation); test: Preservation of platelet function in blood tubes (Multiplate, ADP-induced platelet aggregation); format: cell-based, human (healthy volunteers); conditions: ADP agonist
Protocol: (§1) Individual peptides are dissolved in phosphate buffered saline to prepare 10× peptide solutions (ie. concentrations of peptides are 10 times higher than the final concentrations at which they are to be tested). 0.3 ml of the 10× peptide solutions are placed in blood tubes without any additives. Blood was drawn from healthy volunteers using syringes and immediately transferred to a 50 ml conical centrifuge tube (Falcon tube) before pipetting 2.7 ml of the blood into blood tubes with peptide solutions. Final concentrations of peptides are as stated in Table 5 and 6.
Blood tubes with various peptides at different concentrations were left standing at room temperature until tested at designated times. At different time points, tubes were inverted several times and blood samples were taken out for platelet aggregation tests using a Multiplate® Platelet aggregometer with adenosine diphosphate (ADP) as agonist according to manufacturer's recommended protocols.

[2] = biological target: T1, thrombin (Homo sapiens, UniProt P00734); test: Inhibition of thrombin fibrinogenolytic activity (fibrinogen clotting time); format: biochemical
T1 construct: residues in the termini of the light chain; and in the autolysis loop and C-terminus of the heavy chain; purchased Chemo-Sero-Therapeutic Research Institute (Kaketsuken, Japan), as a gift, not bought
Protocol: Thrombin amidolytic activity assays for all peptides were performed in 96-wells microtiter plates in 50 mM Tris buffer (pH 7.4) containing 100 mM NaCl and 1 mg/ml bovine serum albumin. Typically, 100 μl of peptide and 100 μl of thrombin were pre-incubated for different durations before 100 μl of S2238 was added to the reaction wells. The rates of formation of p-nitroaniline were followed by measuring the absorbance at 405 nm for 10 min with a Tecan InfinitePro M200 microplate reader from Tecan (Männedorf, Switzerland). Dose-response curves were fitted using the GraphPad Prizm software (San Diego, Calif., USA) to calculate IC50 values and Hill coefficients. To measure the inhibitory constants, different concentrations of S2238 were used and the residual velocities were determined using the Morrison's tight binding equation. Inhibition of thrombin fibrinogenolytic activity of peptides were tested by measuring absorbance at 650 nm using a Sunrise microplate reader from Tecan (Männedorf, Switzerland) as described previously [Koh C Y, et al., J Biol Chem 282: 29101-13 (2007)]. The selectivity of avathrin was examined against 13 serine proteases (FIG. 5). Effects of avathrin on the amidolytic activities of these serine proteases were determined using respective chromogenic substrates. Cleavage of avathrin by thrombin. Avathrin (150 μM) was incubated with thrombin (5 μM), in 50 mM Tris buffer (pH 7.4) containing 150 mM NaCl and 1 mg/ml BSA. After different incubation times, reactions were quenched with 1% TFA (pH 1.8) and loaded onto a Jupiter Proteo column (4 μm, 90 Å, 100×1.0 mm) attached to a Dionex nano-HPLC system from Thermo Fisher Scientific (Waltham, Mass., USA) and eluted using an acetonitrile gradient with 0.05% TFA and 99.95% MilliQ water as eluent A and 0.05% TFA, 19.95% MilliQ water and 80% ACN as eluent B. Masses of all peaks were measured to identify cleavage products, which were subsequently quantified by integrating the peaks and calculating the area under the curves. To measure the effect of different pre-incubation times on the thrombin inhibitory activity, amidolytic assays were performed for various incubation times (up to 36 h).

[3] = biological target: T2, human α-thrombin (Homo sapiens, UniProt P00734); test: Thrombin amidolytic activity assay with chromogenic substrate S2238; format: biochemical
T2 construct: residues in the termini of the light chain; purchased Chemo-Sero-Therapeutic Research Institute (Kaketsuken, Japan), as a gift, not bought
In short: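 Run in 50 mM Tris pH 7.4, 100 mM NaCl, 1 mg/ml BSA; p-nitroaniline release from S2238 monitored at 405 nm for 10 min. IC50 and Hill coefficients from dose-response fits; inhibition constants from varied S2238 concentrations using Morrison tight-binding equation.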

[4] = system: blood; test: Anti-coagulation effect of peptides in blood tubes (visual clot formation); parameters: species or system human (healthy volunteers); conditions: room temperature
Protocol: as §1
Blood tubes with various peptides at different concentrations were left standing at room temperature until tested at designated times. At different time points, tubes were inverted several times and visually inspected for insoluble materials as indications of clot formation.

[5] = inhibitory constant Ki for thrombin, thrombin 0.81 nM, various S2238 concentrations
[6] = final concentration 75 micromolar
[7] = final concentration 150 micromolar
[8] = final concentration 300 micromolar

| Compound | Multiplate AUC (U) ([1]; 1.5 h, peptide 150 μM) | Multiplate AUC (U) ([1]; 1.5 h, peptide 300 μM) | Multiplate AUC (U) ([1]; 4 h, peptide 150 μM) | Multiplate AUC (U) ([1]; 4 h, peptide 300 μM) | Multiplate AUC (U) ([1]; 24 h, peptide 150 μM) | Multiplate AUC (U) ([1]; 24 h, peptide 300 μM) | Multiplate AUC (U) ([1]; 48 h, peptide 300 μM) | effect on fibrinogen clotting time / thrombin fibrinogenolytic activity [2] | times higher affinity for thrombin than Bivalirudin [3] | Ki [3, 5] | Time to observe clot formation [4, 6] | Time to observe clot formation [4, 7] | Time to observe clot formation [4, 8] | also measured |
| --- | --- | --- | --- | --- | --- | --- | --- | --- | --- | --- | --- | --- | --- | --- |
| CC[C@H](C)[C@H](NC(=O)[C@H](CCCCN)NC(=O)[C@@H]1CCCN1C(=O)[C@@H](NC(=O)[C@H](C)NC(=O)[C@@H](NC(=O)[C@H](CCC(N)=O)NC(=O)[C@H](Cc1c[nH]cn1)NC(=O)CNC(=O)CNC(=O)[C@@H](N)CO)[C@@H](C)O)C(C)C)C(=O)N[C@@H](CO)C(=O)N[C@@H](CCCCN)C(=O)N[C@@H](CCC(N)=O)C(=O)NCC(=O)N[C@@H](CC(C)C)C(=O)NCC(=O)NCC(=O)N[C@@H](CC(=O)O)C(=O)N[C@@H](Cc1ccccc1)C(=O)N[C@@H](CCC(=O)O)C(=O)N[C@@H](CCC(=O)O)C(=O)N[C@H](C(=O)N1CCC[C@H]1C(=O)N[C@@H](CO)C(=O)N[C@@H](CC(=O)O)C(=O)N[C@@H](CCC(=O)O)C(=O)N[C@H](C(=O)N[C@H](C(=O)N[C@@H](CCC(=O)O)C(=O)O)[C@@H](C)CC)[C@@H](C)CC)[C@@H](C)CC [Avathrin] (H-SGGHQTAVPKISKQGLGGDFEEIPSDEIIE-OH; N-terminus and C-terminus assumed) | 60.9 U | 62.4 U | 53.6 U | 46.8 U | 55.8 U | 43.3 U | 3.5 U | prolonged fibrinogen clotting time in a dose-dependent manner | approximately 5 times | 0.5453 ± 0.0031 nM | 42 to 52 h | 52 to 66 h | 52 to 66 h | effect on fibrinogen clotting time / thrombin fibrinogenolytic activity ([2]; listed as avathrin): prolonged fibrinogen clotting times in a dose dependent manner; Hill slope of thrombin amidolytic inhibition ([3]; 0 min pre-incubation where stated): 0.92±0.01; Hill slope of thrombin amidolytic inhibition, 10 min pre-incubation ([3]; 10 min pre-incubation): 0.94±0.02; IC50 ([3]; IC50(nM), Table 2): 6.95 ± 0.42 nM; Hill Slope ([3]; Table 2): 0.92 ± 0.02; thrombin amidolytic activity inhibited after prolonged incubation ([3]; at 24 h, same avathrin:thrombin ratio as cleavage experiments): > 45%; inhibition at 0.01 µM ([3]; read-out: inhibition of thrombin activity): 65%; inhibition at 0.001 µM ([3]; read-out: inhibition of thrombin amidolytic activity at equimolar concentrations): 14.3 ± 1.39% |
| CC[C@H](C)[C@H](NC(=O)[C@H](C)NC(=O)[C@H](CC(=O)O)NC(=O)[C@H](CC(=O)O)NC(=O)[C@@H]1CCCN1C(=O)[C@@H](NC(=O)[C@H](CCC(=O)O)NC(=O)[C@H](CCC(=O)O)NC(=O)[C@H](Cc1ccccc1)NC(=O)[C@H](CC(=O)O)NC(=O)CNC(=O)[C@@H]1CCCN1C(=O)[C@@H]1CCCN1C(=O)[C@H](C)NC(=O)[C@@H](NC(=O)[C@H](CO)NC(=O)[C@H](Cc1ccc(O)cc1)NC(=O)[C@H](CCSC)NC(=O)[C@H](CCCCN)NC(=O)[C@@H]1CCCN1C(=O)[C@@H](NC(=O)[C@H](C)NC(=O)[C@H](CCCNC(=N)N)NC(=O)[C@@H](NC(=O)[C@H](C)NC(=O)[C@H](CCC(=O)O)NC(=O)[C@H](CC(=O)O)NC(=O)[C@@H](N)CO)C(C)C)[C@@H](C)CC)[C@@H](C)O)[C@@H](C)CC)C(=O)N[C@@H](CCC(=O)O)C(=O)N[C@@H](CCC(=O)O)C(=O)O [Ultravariegin] (H-SDEAVRAIPKMYSTAPPGDFEEIPDDAIEE-OH; N-terminus and C-terminus assumed) | 55.7 U | 66.3 U | 52 U | 46.1 U | 43.1 U | 39.5 U | 25.4 U | prolonged fibrinogen clotting times in a dose dependent manner | ~650 times | 0.0015 nM | 91 to 101 h | 101 to 139 h | 101 to 139 h | Multiplate AUC (U) ([1]; 48 h, peptide 150 μM): 7.4 U; Multiplate AUC (U) ([1]; 72 h, peptide 150 μM): 9.6 U; Multiplate AUC (U) ([1]; 72 h, peptide 300 μM): 15.4 U; fold more potent than variegin (Ki) [3]: more than 70 fold; fold stronger affinity compared to avathrin and variegin [3]: > 200 fold; Ki ([3]; Affinity (nM), Table 4, Ki values): 0.001 nM; IC50 ([3]; IC50 (nM), Table 5): 0.4 ± 0.09 nM; IC50 ([3]; IC50 of inhibition of thrombin amidolytic activity, thrombin 0.81 nM, S2238 100 μM, without pre-incubation (0 min) where stated): 0.26 ± 0.008 nM; Ki ([3]; Ki (pM), Table 5): 0.0044 ± 0.00035 nM |
